Measurements reported in PubChem BioAssay AID248 (DTP/NCI, 2004).
“And” between values parts separate entries of the source, which are not always exact repeats. Identical values can stand only once. Toxic doses and inconclusive results are not listed.

Test system: L1210 leukemia ip in BDF1 mice, survival T/C
Experiment: NCI In Vivo Anticancer Drug Screen. Data for tumor model L1210 Leukemia (intraperitoneal) in B6D2F1 (BDF1) mice
Details: endpoint: mean survival time, higher = longer survival
Procedure, shortened: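 Transplantable tumor model; survival measured in treated vs vehicle control mice. Value = treated/control.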

[1] = dose: 50.0 mg/kg/injection, schedule: Q01DX009 (ip), vehicle: saline with Tween-80
[2] = dose: 100.0 mg/kg/injection, schedule: Q01DX001 (ip), vehicle: carboxymethylcellulose (CMC)
[3] = dose: 100.0 mg/kg/injection, schedule: Q01DX009 (ip), vehicle: saline with Tween-80
[4] = dose: 100.0 mg/kg/injection, schedule: Q04DX003 (ip), vehicle: saline with Tween-80
[5] = dose: 200.0 mg/kg/injection, schedule: Q01DX001 (ip), vehicle: carboxymethylcellulose (CMC)
[6] = dose: 200.0 mg/kg/injection, schedule: Q04DX003 (ip), vehicle: saline with Tween-80
[7] = dose: 400.0 mg/kg/injection, schedule: Q01DX001 (ip), vehicle: carboxymethylcellulose (CMC)
[8] = dose: 400.0 mg/kg/injection, schedule: Q01DX009 (ip), vehicle: saline with Tween-80
[9] = dose: 400.0 mg/kg/injection, schedule: Q04DX003 (ip), vehicle: saline with Tween-80
[10] = dose: 50.0 mg/kg/injection, schedule: Q01DX001 (ip), vehicle: saline
[11] = dose: 100.0 mg/kg/injection, schedule: Q01DX001 (ip), vehicle: saline
[12] = dose: 200.0 mg/kg/injection, schedule: Q01DX001 (ip), vehicle: saline
[13] = dose: 400.0 mg/kg/injection, schedule: Q01DX001 (ip), vehicle: saline
[14] = dose: 100.0 mg/kg/injection, schedule: Q01DX009 (ip), vehicle: Klucel (hydroxypropylcellulose) (HPC)
[15] = dose: 100.0 mg/kg/injection, schedule: Q04DX003 (ip), vehicle: Klucel (hydroxypropylcellulose) (HPC)
[16] = dose: 200.0 mg/kg/injection, schedule: Q01DX009 (ip), vehicle: Klucel (hydroxypropylcellulose) (HPC)
[17] = dose: 200.0 mg/kg/injection, schedule: Q04DX003 (ip), vehicle: Klucel (hydroxypropylcellulose) (HPC)
[18] = dose: 400.0 mg/kg/injection, schedule: Q01DX009 (ip), vehicle: Klucel (hydroxypropylcellulose) (HPC)
[19] = dose: 400.0 mg/kg/injection, schedule: Q04DX003 (ip), vehicle: Klucel (hydroxypropylcellulose) (HPC)
[20] = dose: 200.0 mg/kg/injection, schedule: Q01DX009 (ip), vehicle: saline with Tween-80
[21] = dose: 100.0 mg/kg/injection, schedule: Q01DX001 (ip), vehicle: saline with Tween-80
[22] = dose: 200.0 mg/kg/injection, schedule: Q01DX001 (ip), vehicle: saline with Tween-80
[23] = dose: 100.0 mg/kg/injection, schedule: Q01DX009 (ip), vehicle: saline
[24] = dose: 50.0 mg/kg/injection, schedule: Q01DX001 (ip), vehicle: carboxymethylcellulose (CMC)

## Cc1ccc(Cl)c(C(=O)C(Br)C(Br)c2ccccc2)c1 (stereo not drawn)
dose: 12.5 mg/kg/injection, schedule: Q01DX009 (ip), vehicle: saline with Tween-80
  T/C: 100 % of control
dose: 25.0 mg/kg/injection, schedule: Q01DX009 (ip), vehicle: saline with Tween-80
  T/C: 100 % of control
[1]
  T/C: 94 % of control and 100 % of control

## Cc1ccc2c(c1)CC=CO2
dose: 50.0 mg/kg/injection, schedule: Q01DX009 (ip), vehicle: carboxymethylcellulose (CMC)
  T/C: 91 % of control
[2]
  T/C: 96 % of control
dose: 100.0 mg/kg/injection, schedule: Q01DX009 (ip), vehicle: carboxymethylcellulose (CMC)
  T/C: 94 % of control and 97 % of control
[3]
  T/C: 88 % of control
[4]
  T/C: 101 % of control
[5]
  T/C: 96 % of control
dose: 200.0 mg/kg/injection, schedule: Q01DX009 (ip), vehicle: carboxymethylcellulose (CMC)
  T/C: 94 % of control and 95 % of control
[6]
  T/C: 97 % of control
[7]
  T/C: 100 % of control
dose: 400.0 mg/kg/injection, schedule: Q01DX009 (ip), vehicle: carboxymethylcellulose (CMC)
  T/C: 96 % of control
[8]
  T/C: 92 % of control
[9]
  T/C: 98 % of control

## OCC(O)C(O)C(O)C(c1ccc(Cl)cc1)c1ccc(Cl)cc1 (stereo not drawn)
[10]
  T/C: 104 % of control and 103 % of control and 101 % of control
[11]
  T/C: 102 % of control and 103 % of control and 97 % of control
[12]
  T/C: 98 % of control and 101 % of control and 97 % of control
[13]
  T/C: 96 % of control and 91 % of control and 101 % of control

## COC1OC(COS(C)(=O)=O)C(O)C(O)C1OS(C)(=O)=O (stereo not drawn)
[14]
  T/C: 109 % of control
[15]
  T/C: 106 % of control
[16]
  T/C: 95 % of control
[17]
  T/C: 102 % of control
[18]
  T/C: 111 % of control
[19]
  T/C: 102 % of control

## O=[N+]([O-])c1c(O)cc(O)c2ccccc12
dose: 5.0 mg/kg/injection, schedule: Q01DX001 (ip), vehicle: saline
  T/C: 102 % of control
dose: 10.0 mg/kg/injection, schedule: Q01DX001 (ip), vehicle: saline
  T/C: 106 % of control
dose: 20.0 mg/kg/injection, schedule: Q01DX001 (ip), vehicle: saline
  T/C: 101 % of control
dose: 40.0 mg/kg/injection, schedule: Q01DX001 (ip), vehicle: saline
  T/C: 102 % of control
dose: 80.0 mg/kg/injection, schedule: Q01DX001 (ip), vehicle: saline
  T/C: 104 % of control

## N#CCC[N+]1([O-])CCCCC1C(=O)O (stereo not drawn)
[11]
  T/C: 98 % of control
[12]
  T/C: 98 % of control

## COc1ccc([N+](=O)[O-])cc1NC(=O)N(C1CCCCC1)C1CCCCC1
dose: 50.0 mg/kg/injection, schedule: Q01DX009 (ip), vehicle: Klucel (hydroxypropylcellulose) (HPC)
  T/C: 96 % of control
[14]
  T/C: 93 % of control
[16]
  T/C: 96 % of control

## NC(=S)S/C=C/C(=O)O
[1]
  T/C: 96 % of control
[3]
  T/C: 93 % of control
[4]
  T/C: 110 % of control
[20]
  T/C: 86 % of control
[6]
  T/C: 100 % of control
[9]
  T/C: 97 % of control

## CCOC(=O)NS(=O)(=O)[N+](CC)(CC)CC
[2]
  T/C: 97 % of control
[5]
  T/C: 97 % of control
[7]
  T/C: 100 % of control

## CC(=O)OCCN1CCN(CCCN2c3ccccc3Sc3ccc(C(F)(F)F)cc32)CC1
dose: 9.5 mg/kg/injection, schedule: Q04DX003 (ip), vehicle: saline with Tween-80
  T/C: 114 % of control
dose: 12.5 mg/kg/injection, schedule: Q04DX003 (ip), vehicle: saline
  T/C: 106 % of control
dose: 22.0 mg/kg/injection, schedule: Q04DX003 (ip), vehicle: saline with Tween-80
  T/C: 120 % of control and 123 % of control
dose: 25.0 mg/kg/injection, schedule: Q04DX003 (ip), vehicle: saline
  T/C: 116 % of control
dose: 33.0 mg/kg/injection, schedule: Q04DX003 (ip), vehicle: saline sonified
  T/C: 93 % of control
dose: 33.3 mg/kg/injection, schedule: Q04DX003 (ip), vehicle: saline with Tween-80
  T/C: 102 % of control
dose: 50.0 mg/kg/injection, schedule: Q04DX003 (ip), vehicle: saline with Tween-80
  T/C: 150 % of control
[11]
  T/C: 106 % of control

## CCCCC(/C=N\NC(=O)c1ccc[n+](C)c1)=C/c1ccccc1
[21]
  T/C: 96 % of control
[22]
  T/C: 102 % of control

## CS(=O)(=O)OCCN(CCOS(C)(=O)=O)c1ccc(C=Nc2cccc(Cl)c2)c(Cl)c1
[15]
  T/C: 106 % of control
[17]
  T/C: 105 % of control
[19]
  T/C: 113 % of control

## O=[N+]([O-])c1ccn(O)c(=Nc2ccccc2)c1
[11]
  T/C: 108 % of control
[12]
  T/C: 104 % of control
[13]
  T/C: 100 % of control

## CN(C)CC(=O)c1c[nH]c(=O)[nH]c1=O
[3]
  T/C: 112 % of control
[20]
  T/C: 94 % of control
[8]
  T/C: 102 % of control

## O=C1c2ccccc2C(=O)c2c(Nc3ccccc3)ccc(NCCO)c21
[11]
  T/C: 102 % of control
[12]
  T/C: 100 % of control
[13]
  T/C: 97 % of control

## COC(=O)C1(C)COP(=O)(N2CC2)OC1 (stereo not drawn)
[11]
  T/C: 101 % of control
[12]
  T/C: 106 % of control
[13]
  T/C: 95 % of control

## Cc1cccc(N=Cc2ccc3c(c2)OCO3)c1
dose: 50.0 mg/kg/injection, schedule: Q01DX009 (ip), vehicle: saline
  T/C: 94 % of control
[23]
  T/C: 94 % of control
dose: 200.0 mg/kg/injection, schedule: Q01DX009 (ip), vehicle: saline
  T/C: 94 % of control

## CON(C)c1nc(Cl)nc(N(C)OC)n1
[2]
  T/C: 96 % of control
[14]
  T/C: 97 % of control
[5]
  T/C: 94 % of control
[16]
  T/C: 105 % of control
[7]
  T/C: 107 % of control
[18]
  T/C: 105 % of control

## Cc1ccc(C)c(C[P+](c2ccccc2)(c2ccccc2)c2ccccc2)c1
dose: 15.0 mg/kg/injection, schedule: Q01DX001 (ip), vehicle: saline
  T/C: 104 % of control

## CCC(=O)c1ccc(OCC(O)CN2CCN(c3ccccc3Cl)CC2)cc1 (stereo not drawn)
[21]
  T/C: 101 % of control
[3]
  T/C: 95 % of control
[22]
  T/C: 104 % of control
[20]
  T/C: 95 % of control
dose: 400.0 mg/kg/injection, schedule: Q01DX001 (ip), vehicle: saline with Tween-80
  T/C: 102 % of control
[8]
  T/C: 88 % of control

## Nc1cc([N+](=O)[O-])cc([N+](=O)[O-])c1
[24]
  T/C: 109 % of control
[2]
  T/C: 118 % of control
[5]
  T/C: 113 % of control

## C=CCNC(=S)Nc1cccc(OC(=O)NC(C)(C)C)c1
[14]
  T/C: 90 % of control
[16]
  T/C: 90 % of control
[18]
  T/C: 92 % of control

## O=C1CCCC(=O)NNC(=O)Nc2ccc(cc2)Cc2ccc(cc2)NC(=O)NN1
[10]
  T/C: 104 % of control
[11]
  T/C: 90 % of control
[12]
  T/C: 93 % of control
[13]
  T/C: 93 % of control

## COC(=O)CCCCCCCCCCS.[Pb]
[24]
  T/C: 92 % of control
[2]
  T/C: 94 % of control
[5]
  T/C: 94 % of control
[7]
  T/C: 97 % of control

## COC(OC)c1[nH]c(=S)[nH]c(=O)c1Cc1cccc(Cl)c1
[23]
  T/C: 100 % of control
dose: 400.0 mg/kg/injection, schedule: Q01DX009 (ip), vehicle: saline
  T/C: 113 % of control

## Nc1ncnc2nncnc12
[24]
  T/C: 93 % of control
[2]
  T/C: 93 % of control

## CC(=O)NNC(=O)c1ccncc1
dose: 100.0 mg/kg/injection, schedule: Q01DX001 (ip), vehicle: water
  T/C: 93 % of control
dose: 100.0 mg/kg/injection, schedule: Q01DX009 (ip), vehicle: water
  T/C: 101 % of control
dose: 200.0 mg/kg/injection, schedule: Q01DX001 (ip), vehicle: water
  T/C: 98 % of control
dose: 200.0 mg/kg/injection, schedule: Q01DX009 (ip), vehicle: water
  T/C: 106 % of control and 110 % of control
dose: 400.0 mg/kg/injection, schedule: Q01DX001 (ip), vehicle: water
  T/C: 102 % of control
dose: 600.0 mg/kg/injection, schedule: Q01DX009 (ip), vehicle: water
  T/C: 122 % of control
dose: 800.0 mg/kg/injection, schedule: Q01DX009 (ip), vehicle: water
  T/C: 97 % of control

## O=C1OC(c2ccccc2)=NC1(c1ccccc1)C1(c2ccccc2)N=C(c2ccccc2)OC1=O (stereo not drawn)
[4]
  T/C: 88 % of control
[6]
  T/C: 93 % of control
[9]
  T/C: 86 % of control
